{"source": "patent US20220160647A1", "about": "“TRANSDERMAL DRUG DELIVERY DEVICE/TRANSDERMAL PATCH AND OTHER APPLICATIONS OF EMULSION FORMULATION” (First Necessity, LLC, priority 2020, published 2022)", "key": {"[1]": {"assay": "Solubility of CBD in water, MCT oil and the liposomal polymeric emulsion", "assay_type": "physicochemical", "text": "(E. Samara and M. Bialer, Drug Metab. Dispos., 16 (6) 875-879 (1988). This provides a maximum weight/weight percent of approximately 0.07%.\nIn certain embodiments of the present teaching, hyaluronic acid may be present in the polymeric-emulsion disclosed herein. Such embodiments also include the presence of water. […] In the present case, this value was slightly exceeded in testing the liposomal polymeric emulsion set forth herein in combination with hyaluronic acid, water and MCT as the hydrophobic component. […] That said, the polymeric liposomal emulsion set forth herein retains the ability to dissolve water soluble compounds even when incorporating oil-soluble compounds at a relatively high percentage or amount."}, "[2]": {"conditions": "accepted value (Samara and Bialer 1988); cited from earlier work"}, "[3]": {"conditions": "liposomal polymeric emulsion with hyaluronic acid, water and MCT"}}}
{"compound": "C=C(C)[C@@H]1CCC(C)=C[C@H]1c1c(O)cc(CCCCC)cc1O", "note": "[CBD, cannabidiol]", "values": [{"measurement": "concentration of CBD in stable solution", "setting": "[1]; MCT oil", "value": 400, "unit": "mg/mL"}, {"measurement": "concentration of CBD in stable solution, by weight", "setting": "[1]; MCT oil", "value": 40, "unit": "% by weight"}, {"measurement": "increase in CBD solubility compared to base MCT oil", "setting": "[1]; liposomal polymeric emulsion vs base MCT oil", "value": 1.125, "unit": "fold"}, {"measurement": "increase in CBD solubility compared to water", "setting": "[1]; liposomal polymeric emulsion vs water", "value": "greater than 500 fold"}, {"measurement": "concentration of CBD in solution", "setting": "[1]; [3]", "value": 450, "unit": "mg/mL"}, {"measurement": "concentration of CBD in solution, by weight", "setting": "[1]; [3]", "value": 45, "unit": "% by weight"}, {"measurement": "maximum weight/weight percent of CBD in water", "setting": "[1]; pure water, worked out from 0.7 μg per mL", "value": "approximately 0.07%"}, {"measurement": "solubility of CBD in pure water", "setting": "[2]", "value": 0.7, "unit": "μg per mL"}]}
